Entries after “also recorded” stand apart in the source; their conditions may differ.
Assays:
MIR cell = MIR cell induction in treated mice; details: in vivo; for concentration inducing a comparable MIR cell increase: mice
Procedure: [Moto bene: DRV-IV-26=3A5AS].
The solubility of 3AC was assessed by calculating the distribution coefficient (CLogD). This calculation estimates the CLogD for 3AC at 7.17 indicating the molecule is very lipophilic. Thus, we have begun to develop novel 3AC analogs with increased aqueous solubility. One of these compounds, 3A5AS, has a CLogD of 3.33. Lipinski's rules (a common measure of small molecule pharmacokinetics) recommend a ClogD of <5 for in vivo applications.

SHIP1 = molecular target: T1, SHIP1 (Homo sapiens, UniProt Q92835); assay: SHIP1 Malachite Green phosphatase assay; type: biochemical; details: for SHIP1 inhibitory activity (in words): Malachite Green phosphate release assay, compared with 3AC
T1 sequence (Q92835 1-1189): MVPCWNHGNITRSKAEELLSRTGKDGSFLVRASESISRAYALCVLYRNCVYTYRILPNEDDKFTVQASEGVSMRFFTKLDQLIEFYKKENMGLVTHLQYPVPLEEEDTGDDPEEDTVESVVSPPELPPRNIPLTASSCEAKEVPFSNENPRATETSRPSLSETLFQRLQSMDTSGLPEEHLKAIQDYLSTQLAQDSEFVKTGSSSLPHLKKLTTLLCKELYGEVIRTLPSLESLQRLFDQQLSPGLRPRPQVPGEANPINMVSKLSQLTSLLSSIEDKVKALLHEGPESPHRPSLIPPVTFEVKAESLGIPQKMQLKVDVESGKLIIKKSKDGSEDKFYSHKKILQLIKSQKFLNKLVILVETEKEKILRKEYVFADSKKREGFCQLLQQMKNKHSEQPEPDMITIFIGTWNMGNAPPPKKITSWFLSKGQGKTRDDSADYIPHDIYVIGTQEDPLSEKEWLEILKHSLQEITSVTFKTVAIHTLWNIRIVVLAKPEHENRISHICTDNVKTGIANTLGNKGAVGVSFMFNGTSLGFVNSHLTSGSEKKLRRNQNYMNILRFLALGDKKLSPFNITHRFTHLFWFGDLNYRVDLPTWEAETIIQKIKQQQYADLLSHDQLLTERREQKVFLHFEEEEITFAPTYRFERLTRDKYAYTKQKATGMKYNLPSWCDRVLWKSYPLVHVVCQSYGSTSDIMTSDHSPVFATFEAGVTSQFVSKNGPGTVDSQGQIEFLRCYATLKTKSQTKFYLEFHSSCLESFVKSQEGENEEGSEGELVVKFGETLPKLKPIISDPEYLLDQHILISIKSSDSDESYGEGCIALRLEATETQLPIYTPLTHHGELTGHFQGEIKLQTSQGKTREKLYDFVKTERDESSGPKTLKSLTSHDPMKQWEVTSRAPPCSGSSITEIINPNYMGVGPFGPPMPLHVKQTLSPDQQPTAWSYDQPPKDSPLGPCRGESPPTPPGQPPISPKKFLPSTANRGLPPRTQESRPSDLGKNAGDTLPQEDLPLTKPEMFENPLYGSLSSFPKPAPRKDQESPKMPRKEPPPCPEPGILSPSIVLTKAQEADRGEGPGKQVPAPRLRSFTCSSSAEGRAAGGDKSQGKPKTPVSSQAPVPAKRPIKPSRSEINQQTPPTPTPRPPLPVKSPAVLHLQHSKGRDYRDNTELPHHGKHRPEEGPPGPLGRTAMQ
Procedure: The standard protocol for measuring SHIP inhibition activity was conducted as described in the materials section of Brooks, R., Fuhler, G. M., Iyer, S., Smith, M. J., Park, M. Y., Paraiso, K. H., Engelman, R. W., and Kerr, W. G., “SHIP1 inhibition increases immunoregulatory capacity and triggers apoptosis of hematopoietic cancer cells,” J Immunol 184:3582-3589 (2010), which is incorporated herein by reference, which protocol is described in pertinent part as follows: Malachite Green Assay was obtained from Echelon Biosciences. Malachite Green forms a colored complex with free phosphate liberated by the SHIP1, SHIP2, or PTEN enzyme reactions. The assay was performed according to manufacturer's protocol. The 3a-aminocholestane (3AC) was dissolved in 100% ethanol and used at a final concentration of 1 mM in the Malachite Green assay.

[1] = 3AC treatment of adult C57BL6/J mice (DEXA, microCT, serum ELISA); type: in vivo; details: vs vehicle, hydrochloride
[2] = cited reference 3 of Example 22; cited from earlier work
[3] = 3-point bending test and microCT of femurs of 3AC treated mice; type: in vivo
Procedure: Mouse femurs were cleaned, wrapped in PBS-soaked gauze and frozen at […]. Femurs were rehydrated in a PBS solution at room temperature for 2 hours before testing. We employed a 3-point-bending test to assay the biomechanical properties of femurs treated with the 3AC inhibitor. Femurs were placed into a testing frame (1250 N Load Cell and a Q Test 1/L, MTS Systems Corp, Eden Prairie, Minn.), pre-loaded with 1 N and then loaded at 1 N/mm until failure. Prior to testing femurs were scanned using microCT to assay the geometric properties.

[4] = 3AC treatment of aged C57BL/6 mice, fasting blood glucose and insulin; type: in vivo; details: after 1 month treatment
Procedure: We noted that mutation of the SHIP1 paralog, SHIP2, also promotes resistance to diet-induced obesity and diabetes^2 We hypothesized then that treatment of adult or aging mice with a pan-SHIP1/2 inhibitor, 3AC^3,4, (SHIPi) might reduce body fat content. This was then tested by pulsatile SHIPi treatment of aged C57BL/6 mice that have begun to accumulate excess body fat and then assessing their body fat content via whole body DEXA imaging. […] This analysis confirmed that small molecule targetting of SHIP1/2 in vivo is a feasible approach to reverse the accumulation of excess body fat and glucose homeostasis during aging.

immunoregulatory cells = assay: Oral administration of K118 in mice, immunoregulatory cells by flow cytometry
[5] = Pulsatile K118 treatment of aged male and female C57BL/6 mice (Example 22); type: in vivo
[6] = Solubility in water / delivery solution; details: 100% H2O; hydrochloride
[7] = K118/K189 treatment of 9-12 month old mice (Example 21); details: aged mice, 10 mg/kg i.p. two times per week, 4 weeks, hydrochloride
Description: After one month we monitored body weight, % body fat and bone mineral density (BMD) in all groups.

[8] = K118/K189 treatment of DIO mice on high fat diet (Example 21); details: for % body fat: DIO mice on 60% fat diet, 10 mg/kg 2x/week, 1 month, vs pre-treatment
Description: DIO mice are fed a diet that includes both high quantities of fat as well as sugar. […] DIO mice were purchased from Jackson labs at 12 weeks of age. […] After 1 month on the high fat diet we examined % body fat, (FIG. 28) weight, (FIG. 29) and BMD (FIG. 30).

[9] = K118 treatment of DIO mice on high caloric diet (Example 22); type: in vivo
Procedure: ; As before K118 treatment was performed for one month. After K118 or vehicle treatment we examined weight, (FIG. 35A-C) food intake, (FIG. 35D) gross comparison of fat depots, (FIG. 35E) % body fat, (FIG. 35F) BMD and BMC (FIG. 38A,B). […]. (FIG. 35A,B) The vehicle group retained or increased their body mass during the one month study (FIG. 35C). The weight difference between the K118- and vehicle-treated mice was readily apparent upon visual examination of the mice (FIG. 35C). […]. Obesity is a complex metabolic disorder that predisposes individuals to several co-morbidities, such as type 2 diabetes mellitus. DIO mice are a well-studied model to of diet-related obesity and its leading co-morbidity, type 2 diabetes^12,13. […]. We measured fasting and ad libitum blood glucose and insulin levels and performed the intraperitoneal glucose tolerance test (IGTT) on fasted DIO mice. […]. After 1 month we examined fasting and ad libitum blood glucose, (FIG. 36A-B) fasting and ad libitum insulin, (FIG. 36C-D) the fasting and ad libitum insulin:glucose ratio, (FIG. 36E) and IGTT on fasted DIO mice (FIG. 36F). […]. (FIG. 36A-B). […].

[10] = aging C57BL/6 mice of both sexes, 2x/week, 10 mg/kg, 1 month

C[C@@]12CCC[C@H]1[C@@H]1CC[C@H]3C[C@H](N)CC[C@]3(C)[C@H]1CC2 [3A5AS, 3α-amino-5α-androstane]
concentration inducing a comparable MIR cell increase (MIR cell): 15 µM
potency at inducing MIR cell numbers (MIR cell; compared with 3AC): more potent
SHIP1 inhibitory activity (in words) (SHIP1): equally potent; also recorded: retains equal inhibitory activity

CC(C)CCC[C@@H](C)[C@H]1CC[C@H]2[C@@H]3CCC4C[C@H](N)CC[C@]4(C)[C@H]3CC[C@]12C.Cl (stereo partly drawn) [3AC, 3α-Aminocholestane hydrochloride]
concentration inducing a comparable MIR cell increase (MIR cell): 60 µM
whole-body BMD ([1]; DEXA, 25 mg/kg i.p. three times per week, 4, 8 and 16 weeks, 25 mg/kg): significantly reduces; also recorded: Significant decrease
percent body fat ([1]; DEXA, aging mice, 25 mg/kg three times per week, 25 mg/kg): significantly reduced; also recorded: Significant decrease
serum OPG ([1]; ELISA): significantly increases; also recorded: increased
serum RANKL ([1]; ELISA): decreased
bone mass (Bv/Tv) ([1]; microCT metaphysis, 25 mg/kg i.p. three times per week, 25 mg/kg): significantly reduces; also recorded: significantly decreased
aqueous solubility [2]: poor aqueous solubility
energy to fracture ([3]; 3-point bend): not observed to be significantly different
energy to peak ([3]; 3-point bend): not observed to be significantly different
decrease in the peak load ([3]; femurs of 3AC treated mice, 3-point bend, p<0.01): 15.4%
decrease in the stiffness ([3]; femurs of 3AC treated mice, 3-point bend, p<0.04): 21.6%
cortical thickness in the femurs ([3]; mid-shaft microCT): significant decreases
fasting blood glucose [4]: significant decrease
insulin [4]: significant decrease

C[C@@]12CCC[C@H]1[C@@H]1CC[C@H]3C[C@@H](N)CC[C@]3(C)[C@H]1CC2.Cl [K118, 3βAmino-5α-androstane hydrochloride]
oral bioavailability (immunoregulatory cells; delivered orally, 10 mg/kg, preliminary studies): bioavailable
neutrophil numbers (immunoregulatory cells; oral 10 mg/kg, hydrochloride, 10 mg/kg): trend for increased; also recorded: Increase
frequency of natural T regulatory cells (nTreg, CD4+CD25+FoxP3+) (immunoregulatory cells; spleen and mesenteric lymph node, oral 10 mg/kg): Significant increases
frequency of myeloid derived suppressor cells (MDSC, Gr1 and Mac1) (immunoregulatory cells; spleen, oral 10 mg/kg): significant increase
morbidity or mortality ([5]; K118 treated mice): no significant morbidity or mortality
BMD ([5]; aged male and female mice, hydrochloride): does not significantly reduce; also recorded: does not affect
bone mineral content (BMC) ([5]; aged mice, one month pulsatile treatment, hydrochloride): normal bone density and mineral content; also recorded: does not affect
body fat [5, 10]: quite effective at reducing
body mass (weight) [5, 10]: quite effective at reducing
inflammation / lesions in lungs and small intestine (ileum) ([5]; histology, one month pulsatile treatment, hydrochloride): lacked any evidence of inflammation; also recorded: no significant lesions
SHIP1 inhibitory activity (in words) (SHIP1; hydrochloride): comparable SHIP1 inhibitory activity; also recorded: significant SHIP1 inhibitory activity
inhibition at 1000 µM (SHIP1; at 1 mM, tested in triplicate): 59%
solubility in water [6]: water-soluble; also recorded: water soluble
BMD [7]: does not significantly reduce
body fat [7]: quite effective at reducing; also recorded: reduces
body mass (weight) [7]: quite effective at reducing; also recorded: reduces
% body fat ([8]; hydrochloride): significantly lower; also recorded: reverses diet-induced obesity
weight gain ([8]; DIO mice on high fat diet, 1 month treatment, hydrochloride): did not significantly gain weight; also recorded: prevents diet-induced weight gain
body fat in individual mice ([8]; all K118 treated mice, one month): reduced body fat
mice that lost weight ([8]; individual mice of the K118 group, one month): 3 out of 4
BMD ([8]; young mice on a high fat diet, hydrochloride): did not adversely impact; also recorded: does not cause a significant reduction
BMD or BMC ([9]; C57BL6 mice on a HCD, hydrochloride): did not adversely impact; also recorded: does not affect
body weight ([9]; DIO mice on HCD, 2x/week, 10 mg/kg, one month, vs pre-treatment and vehicle): lost a significant amount of body weight
percent body fat ([9]; DIO mice, vs pre-treatment and vehicle): significantly lower
insulin:glucose ratio ([9]; DIO mice, vs vehicle): significant decrease
leptin production ([9]; HCD mice): reduced leptin production
total cholesterol levels in the serum ([9]; HCD mice): reduced total cholesterol levels
glucose tolerance (IGTT) ([9]; fasted DIO mice, vs vehicle): improved glucose tolerance
blood glucose levels ([9]; fasting and ad libitum, DIO mice, vs pre-treatment and vehicle): significantly reduced
serum insulin levels ([9]; fasting and ad libitum, DIO mice, vs vehicle): significantly lower
fat depot storage ([9]; gross comparison, DIO mice): visibly less fat depot storage

C[C@@]12CCC[C@H]1[C@@H]1CC[C@H]3C[C@@H](O)CC[C@]3(C)[C@H]1CC2 [K189, 3β-Hydroxy-5α-androstane, reference compound]
SHIP1 inhibitory activity (in words) (SHIP1): significant SHIP1 inhibitory activity is lost; also recorded: does not have significant SHIP1 inhibitory activity
% body fat [8]: did not show a significant reduction

Source: US20200376005A1, “SHIP INHIBITION TO COMBAT OBESITY” (THE RESEARCH FOUNDATION FOR THE STATE UNIVERSITY OF NEW YORK, priority 2013, published 2020)
